We go through 9 molecules from ChEMBL document CHEMBL1146531, “Steroidal saponins from the bark of Dracaena draco and their cytotoxic activities” (J Nat Prod, 2003).

The subject of experiment [1] is HL-60. Briefly: Cytotoxicity against human HL60 cells after 72 hrs by MTT assay. It is filed as functional, cell-based. Conditions: HL-60, 72 h. (Formazan colour is commonly taken as a measure of viable cells.)
The test system of experiment [2] is HL-60. Briefly: Induction of apoptosis in human HL60 cells assessed as apoptotic cells at 30 uM after 12 hrs measured by morphological change. It is filed as functional.
Experiment [3] has as its system HL-60. As to the kind of experiment: Cytotoxicity against human HL60 cells after 48 hrs by MTT assay. In kind it is functional, cell-based.
The test system of experiment [4] is HL-60. As to the kind of experiment: Induction of apoptosis in human HL60 cells assessed as PARP cleavage at 30 uM after 12 hrs by Western blot analysis. It is filed as functional, cell-based. On the technique in general: Immunoblotting shows a protein as a band on a membrane.
The test system of the next experiment is U-937. As to the kind of experiment: Cytotoxicity against human U937 cells. In kind it is functional, cell-based.

Activity calls are given as the source filed them. The rule behind the calls is not given here.

For orientation: IC50 means the point on the concentration scale where inhibition reaches its midpoint. In the experiment on HL-60 [1], `C=C1CO[C@@]2(O[C@H]3C[C@H]4[C@@H]5CC=C6C[C@@H](O)C[C@@H](O[C@@H]7OC[C@H](O)[C@H](O)[C@H]7O[C@@H]7O[C@@H](C)[C@H](O)[C@@H](O)[C@H]7OC(C)=O)[C@]6(C)[C@H]5CC[C@]4(C)[C@H]3[C@@H]2C)[C@@H](O)[C@H]1O` [DRACONIN C] had an IC50 of more than 100 µM. Besides, the Activity in the experiment with HL-60 [2] amounted to 5%. In the same order, the values of `C=C1CO[C@@]2(O[C@H]3C[C@H]4[C@@H]5CC=C6C[C@@H](O)C[C@@H](O[C@@H]7OC[C@H](O)[C@H](O)[C@H]7O[C@@H]7O[C@@H](C)[C@H](O)[C@@H](OC(C)=O)[C@H]7OC(C)=O)[C@]6(C)[C@H]5CC[C@]4(C)[C@H]3[C@@H]2C)[C@@H](O)[C@H]1O` [DRACONIN B] are 39 µM and 9.4%. In the experiment on HL-60 [1], `CO[C@]1(CC[C@@H](C)CO[C@@H]2O[C@H](CO)[C@@H](O)[C@H](O)[C@H]2O)O[C@H]2C[C@H]3[C@@H]4CC=C5C[C@@H](O[C@@H]6O[C@H](CO)[C@@H](O)[C@H](O[C@@H]7O[C@H](CO)[C@@H](O)[C@H](O)[C@H]7O)[C@H]6O[C@@H]6O[C@@H](C)[C@H](O)[C@@H](O)[C@H]6O)CC[C@]5(C)[C@H]4CC[C@]3(C)[C@H]2[C@@H]1C` displayed an IC50 of 7.2 µM. As to `CO[C@]1(CC[C@@H](C)CO[C@@H]2O[C@H](CO)[C@@H](O)[C@H](O)[C@H]2O)O[C@H]2C[C@H]3[C@@H]4CC=C5C[C@@H](O[C@@H]6O[C@H](CO)[C@@H](O[C@@H]7O[C@@H](C)[C@H](O)[C@@H](O)[C@H]7O)[C@H](O)[C@H]6O[C@@H]6O[C@@H](C)[C@H](O)[C@@H](O)[C@H]6O)CC[C@]5(C)[C@H]4CC[C@]3(C)[C@H]2[C@@H]1C` [METHYLPROTODIOSCIN], the result in the experiment with HL-60 [3] was Active. For the same molecule, the IC50 in the experiment on HL-60 [1] came out at 7.3 µM.

`C=C1CO[C@@]2(O[C@H]3C[C@H]4[C@@H]5CC=C6C[C@@H](O)C[C@@H](O[C@@H]7OC[C@H](O)[C@H](O)[C@H]7O[C@@H]7O[C@@H](C)[C@H](OC(C)=O)[C@@H](O)[C@H]7O)[C@]6(C)[C@H]5CC[C@]4(C)[C@H]3[C@@H]2C)[C@@H](O)[C@H]1O`: the IC50 in the experiment on HL-60 [1] is more than 100 µM. Same read-out and setting: to `C[C@@H]1CC[C@@]2(OC1)O[C@H]1C[C@H]3[C@@H]4CC=C5C[C@@H](O[C@@H]6O[C@H](CO)[C@@H](O[C@@H]7O[C@@H](C)[C@H](O)[C@@H](O)[C@H]7O)[C@H](O)[C@H]6O[C@@H]6O[C@@H](C)[C@H](O)[C@@H](O)[C@H]6O)CC[C@]5(C)[C@H]4CC[C@]3(C)[C@H]1[C@@H]2C` [DIOSCIN] belongs 2 µM. Consider `C=C1CO[C@@]2(O[C@H]3C[C@H]4[C@@H]5CC=C6C[C@@H](O)C[C@@H](O[C@@H]7OC[C@H](O)[C@H](O)[C@H]7O[C@@H]7O[C@@H](C)[C@H](OC(C)=O)[C@@H](OC(C)=O)[C@H]7OC(C)=O)[C@]6(C)[C@H]5CC[C@]4(C)[C@H]3[C@@H]2C)[C@@H](O)[C@H]1O` [DRACONIN A], for which the IC50 with HL-60 [1] came out at 9.7 µM; in the experiment on U-937 it was 6.8 µM. In addition, the Activity entry is “Dose-dependent effect” in the experiment on HL-60 [4] and 35.1% in the experiment on HL-60 [2]. `C[C@@H]1CC[C@@]2(OC1)O[C@H]1C[C@H]3[C@@H]4CC=C5C[C@@H](O[C@@H]6O[C@H](CO)[C@@H](O[C@@H]7O[C@@H](C)[C@H](O)[C@@H](O)[C@H]7O)[C@H](O)[C@H]6O)CC[C@]5(C)[C@H]4CC[C@]3(C)[C@H]1[C@@H]2C` came in with an IC50 with HL-60 [1] of more than 100 µM. The molecule `C[C@@H]1CC[C@@]2(OC1)O[C@H]1C[C@H]3[C@@H]4CC=C5C[C@@H](O[C@@H]6O[C@H](CO)[C@@H](O)[C@H](O[C@@H]7O[C@H](CO)[C@@H](O)[C@H](O)[C@H]7O)[C@H]6O[C@@H]6O[C@@H](C)[C@H](O)[C@@H](O)[C@H]6O)CC[C@]5(C)[C@H]4CC[C@]3(C)[C@H]1[C@@H]2C` [GRACILLIN] gave an IC50 with HL-60 [1] of 3.7 µM.
